Experimental data taken from patent publication US8003621B2, “Drug carriers” (Nitto Denko Corporation, priority 2007, dated 2011).

Test system: red blood cell
Test: Hemolytic assay
Design: species or system nude mice
Conditions: 0.2% TritonX-100, 100 μL/well with 10 μL of blood sample; 60 minutes at 37° C.
Method: Blood samples of nude mice were collected in heparinize-tubes and were centrifuged at 700×g for 10 minutes. The supernatant was discarded, and the red blood cell pellet was washed three times with cold PBS (pH 7.4) and was re-suspended in the same buffer. Solutions of the polymers and the siEGFP of different concentrations were prepared in PBS buffers and were added to the round-bottom plate at 100 μL/well. Blood sample (10 μL) was added to each well, and the plate was incubated for 60 minutes at 37° C. The release of hemoglobin was determined by photospectrometric analysis after centrifugation (700 g for 10 min). The supernatant (100 μL) from each well was transferred into flat-bottom plate. Intensity of […] at 540 nm was measured by a plate reader.

TritonX-100
hemolysis (control value): 100%
